# Measurements: publication PMC8764529, “Diversification by CofC and Control by CofD Govern Biosynthesis and Evolution of Coenzyme F420 and Its Derivative 3PG-F420” (mBio, 2022)
# How the values were obtained:
# Msmeg-FbiD = target: T1, Msmeg-FbiD (Mycolicibacterium smegmatis, UniProt A0QUZ4); experiment: combined CofC/D assay, LC-MS; format: biochemical; conditions: competitive mixture of 3-PG, 2-PL, PEP (0.5 mM each), 2 mM GTP, 2 mM MgCl2, FO, Mjan-CofD, pH 7.4
# T1 construct: N-terminal His6, full length, E. coli (plasmid pMH10)
# T1 sequence (A0QUZ4 whole entry): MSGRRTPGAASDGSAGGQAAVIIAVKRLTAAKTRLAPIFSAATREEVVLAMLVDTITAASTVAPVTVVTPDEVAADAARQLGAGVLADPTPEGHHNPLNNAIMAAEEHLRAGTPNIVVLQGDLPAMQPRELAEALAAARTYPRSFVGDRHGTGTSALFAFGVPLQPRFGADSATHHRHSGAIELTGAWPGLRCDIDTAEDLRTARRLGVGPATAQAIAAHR
# Mmaz-CofC = target: T2, Mmaz-CofC (Methanosarcina mazei, UniProt Q8PU52); experiment: combined CofC/D assay, LC-MS; format: biochemical; conditions: competitive mixture of 3-PG, 2-PL, PEP (0.5 mM each), 2 mM GTP, 2 mM MgCl2, FO, Mjan-CofD, pH 7.4
# T2 construct: N-terminal His6, E. coli
# T2 sequence (Q8PU52 1-208): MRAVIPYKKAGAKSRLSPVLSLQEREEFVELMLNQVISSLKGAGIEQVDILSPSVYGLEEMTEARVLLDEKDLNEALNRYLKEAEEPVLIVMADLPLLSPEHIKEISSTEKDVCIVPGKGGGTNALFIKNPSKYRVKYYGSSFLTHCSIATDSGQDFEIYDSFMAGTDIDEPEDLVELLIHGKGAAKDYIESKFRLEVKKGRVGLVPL
# [1] = target: T3, CofC (Paracoccus denitrificans) (Paracoccus denitrificans, UniProt A1B131); experiment: combined CofC/D assay, LC-MS; format: biochemical; conditions: competitive mixture of 3-PG, 2-PL, PEP (0.5 mM each), 2 mM GTP, 2 mM MgCl2, FO, Mjan-CofD, pH 7.4
# T3 construct: gene Pden_1117; N-terminal His6, E. coli
# T3 sequence (A1B131 1-216): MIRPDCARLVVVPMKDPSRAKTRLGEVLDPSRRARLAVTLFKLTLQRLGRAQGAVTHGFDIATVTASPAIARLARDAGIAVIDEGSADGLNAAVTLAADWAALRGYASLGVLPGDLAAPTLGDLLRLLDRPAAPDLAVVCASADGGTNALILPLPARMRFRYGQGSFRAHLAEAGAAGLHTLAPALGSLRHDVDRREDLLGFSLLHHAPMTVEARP
# [2] = target: T4, CofC (Thermomicrobium roseum) (Thermomicrobium roseum, UniProt B9L4T8); experiment: combined CofC/D assay, LC-MS; format: biochemical; conditions: competitive mixture of 3-PG, 2-PL, PEP (0.5 mM each), 2 mM GTP, 2 mM MgCl2, FO, Mjan-CofD, pH 7.4
# T4 construct: gene fbiD; N-terminal His6, E. coli
# T4 sequence (B9L4T8 1-200): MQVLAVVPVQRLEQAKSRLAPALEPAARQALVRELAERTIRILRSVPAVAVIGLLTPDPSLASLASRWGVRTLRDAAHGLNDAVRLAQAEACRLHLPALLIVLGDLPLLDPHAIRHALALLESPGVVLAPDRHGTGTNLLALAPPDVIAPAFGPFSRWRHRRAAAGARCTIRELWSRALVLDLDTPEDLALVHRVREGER
# [3] = target: T5, CofC (Oligotropha carboxidovorans) (Afipia carboxidovorans, UniProt B6JBS5); experiment: combined CofC/D assay, LC-MS; format: biochemical; conditions: competitive mixture of 3-PG, 2-PL, PEP (0.5 mM each), 2 mM GTP, 2 mM MgCl2, FO, Mjan-CofD, pH 7.4
# T5 construct: gene fbiD; N-terminal His6, E. coli
# T5 sequence (B6JBS5 1-237): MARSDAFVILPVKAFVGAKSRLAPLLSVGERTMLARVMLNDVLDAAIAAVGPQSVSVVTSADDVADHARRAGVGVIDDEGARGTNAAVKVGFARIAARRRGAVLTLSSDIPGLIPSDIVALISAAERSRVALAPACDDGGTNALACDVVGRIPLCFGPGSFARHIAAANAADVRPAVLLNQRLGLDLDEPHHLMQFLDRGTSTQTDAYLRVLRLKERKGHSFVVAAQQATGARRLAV
# CofC (Ca. E. factor) = target: T6, CofC (Ca. E. factor) (Candidatus Entotheonella factor, UniProt W4LIL2); experiment: combined CofC/D assay, LC-MS; format: biochemical; conditions: competitive mixture of 3-PG, 2-PL, PEP (0.5 mM each), 2 mM GTP, 2 mM MgCl2, FO, Mjan-CofD, pH 7.4
# T6 construct: gene ETSY1_21445; N-terminal His6, E. coli
# T6 sequence (W4LIL2 entry or part of it): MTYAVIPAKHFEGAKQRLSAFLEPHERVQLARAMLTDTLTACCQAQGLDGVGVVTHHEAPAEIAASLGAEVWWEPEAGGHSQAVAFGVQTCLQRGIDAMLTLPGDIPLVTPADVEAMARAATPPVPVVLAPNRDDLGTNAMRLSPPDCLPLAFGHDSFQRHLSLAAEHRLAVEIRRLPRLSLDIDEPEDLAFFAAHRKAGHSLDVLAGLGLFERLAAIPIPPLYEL
# CofC (Ca. H. archaeon) = target: T7, CofC (Ca. H. archaeon) (Candidatus Hydrothermarchaeota archaeon, UniProt A0A497JEJ7); experiment: combined CofC/D assay, LC-MS; format: biochemical; conditions: competitive mixture of 3-PG, 2-PL, PEP ([…] each), […] GTP, […] MgCl2, FO, Mjan-CofD, pH […]
# T7 construct: N-terminal His6, E. coli; synthetic gene; full organism name only in supplement
# T7 sequence (A0A497JEJ7 1-207): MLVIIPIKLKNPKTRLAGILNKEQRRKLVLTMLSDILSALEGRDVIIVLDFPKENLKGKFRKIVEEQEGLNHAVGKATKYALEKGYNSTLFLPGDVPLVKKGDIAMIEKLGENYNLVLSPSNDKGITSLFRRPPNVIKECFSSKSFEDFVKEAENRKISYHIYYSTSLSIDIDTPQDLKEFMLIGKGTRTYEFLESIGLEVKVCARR
# CofC (Archaeon GBE54128) = target: T8, CofC (Archaeon GBE54128) (archaeon BMS3Bbin15, UniProt A0A2H6JTR5); experiment: combined CofC/D assay, LC-MS; format: biochemical; conditions: competitive mixture of 3-PG, 2-PL, PEP ([…] each), […] GTP, […] MgCl2, FO, Mjan-CofD, pH […]
# T8 construct: N-terminal His6, E. coli; synthetic gene
# T8 sequence (A0A2H6JTR5 1-207): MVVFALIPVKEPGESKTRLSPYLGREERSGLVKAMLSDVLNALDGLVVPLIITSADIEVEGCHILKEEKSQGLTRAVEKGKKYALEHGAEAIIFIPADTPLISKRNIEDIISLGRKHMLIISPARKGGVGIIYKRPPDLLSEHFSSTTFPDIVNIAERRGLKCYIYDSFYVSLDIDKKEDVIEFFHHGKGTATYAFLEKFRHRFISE
# Mrhiz-CofC = target: T9, Mrhiz-CofC (Mycetohabitans rhizoxinica, UniProt E5ASS2); experiment: combined CofC/D assay, LC-MS; format: biochemical; conditions: competitive mixture of 3-PG, 2-PL, PEP (0.5 mM each), 2 mM GTP, 2 mM MgCl2, FO, cognate CofD, pH 7.4
# T9 construct: N-terminal His6, full length, E. coli (plasmid pFS03)
# T9 sequence (E5ASS2 6-221): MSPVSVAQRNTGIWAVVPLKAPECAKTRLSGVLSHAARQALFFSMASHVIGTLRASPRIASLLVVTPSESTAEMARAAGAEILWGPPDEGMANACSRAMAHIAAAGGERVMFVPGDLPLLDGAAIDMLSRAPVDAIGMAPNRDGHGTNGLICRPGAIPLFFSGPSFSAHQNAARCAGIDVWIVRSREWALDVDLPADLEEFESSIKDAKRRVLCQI
# Mjan-CofD = target: T10, Mjan-CofD (Methanocaldococcus jannaschii, UniProt Q58653); experiment: combined CofC/D assay, LC-MS; format: biochemical; conditions: coupled to CofC homologs forming LPPG, EPPG or GPPG; 2 mM GTP, 2 mM MgCl2, pH 7.4
# T10 construct: N-terminal His6, E. coli
# T10 sequence (Q58653 whole entry): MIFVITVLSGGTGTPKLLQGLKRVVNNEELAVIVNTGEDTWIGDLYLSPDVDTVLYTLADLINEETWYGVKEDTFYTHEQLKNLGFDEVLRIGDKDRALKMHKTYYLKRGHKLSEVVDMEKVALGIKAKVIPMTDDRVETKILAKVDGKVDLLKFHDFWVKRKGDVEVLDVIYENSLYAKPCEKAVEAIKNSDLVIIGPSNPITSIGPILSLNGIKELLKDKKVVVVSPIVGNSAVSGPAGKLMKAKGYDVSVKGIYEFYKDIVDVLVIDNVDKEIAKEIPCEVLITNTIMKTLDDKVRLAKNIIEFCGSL
# CofC (nano-DSF) = target: T11, CofC (nano-DSF); experiment: nano-DSF; format: binding; conditions: GPPG co-purified with the enzyme may be present
# T11 construct: N-terminal His6, E. coli; Results place the test beside MycB3-CofC, Discussion names M. rhizoxinica
compound,measurement,setting,value
C[C@H](OP(=O)(O)O)C(=O)O [2-PL],"combined CofC/D assay, LC-MS",Msmeg-FbiD,the M. smegmatis FbiD tested in this study preferred 2-PL as substrate
same,"combined CofC/D assay, LC-MS",Mmaz-CofC,"For all CofC-related enzymes analyzed, 2-PL was used most efficiently"
same,"combined CofC/D assay, LC-MS",[1],"For all CofC-related enzymes analyzed, 2-PL was used most efficiently"
same,"combined CofC/D assay, LC-MS",[2],"For all CofC-related enzymes analyzed, 2-PL was used most efficiently"
same,"combined CofC/D assay, LC-MS",[3],"For all CofC-related enzymes analyzed, 2-PL was used most efficiently"
same,"combined CofC/D assay, LC-MS",CofC (Ca. E. factor),"For all CofC-related enzymes analyzed, 2-PL was used most efficiently"
same,"combined CofC/D assay, LC-MS",CofC (Ca. H. archaeon),2-PL was the best substrate of all three enzymes
same,"combined CofC/D assay, LC-MS",CofC (Archaeon GBE54128),2-PL was the best substrate of all three enzymes
O=C(O)[C@H](O)COP(=O)(O)O [3-PG],"combined CofC/D assay, LC-MS",Mrhiz-CofC,"combined with their cognate CofD, the apparent substrate specificity shifted almost completely toward 3-PG"
same,"combined CofC/D assay, LC-MS",CofC (Ca. H. archaeon),all of those enzymes accepted 3-PG as substrates
same,"combined CofC/D assay, LC-MS",CofC (Archaeon GBE54128),all of those enzymes accepted 3-PG as substrates
"O=c1nc2n(C[C@H](O)[C@H](O)[C@H](O)CO)c3cc(O)ccc3cc-2c(=O)[nH]1 [FO, 7,8-didemethyl-8-hydroxy-5-deazariboflavin]","combined CofC/D assay, LC-MS",Mjan-CofD,Distinct derivatives of F420-0 were produced via biochemical reaction of purified CofC and CofD
Nc1nc2c(ncn2[C@@H]2O[C@H](COP(=O)(O)OP(=O)(O)OP(=O)(O)O)[C@@H](O)[C@H]2O)c(=O)[nH]1 [GTP],Kd,CofC (nano-DSF),< 20 µM
